Test results published in the METLIN SMRT retention time set (Domingo-Almenara et al. 2019).

experiment: gradient 5% acetonitrile 3 min, to 50% in 2 min, to 85% in 15 min, held 3 min, 100 µL/min; settings: column: Zorbax Extend-C18 2.1 x 50 mm; eluents: water / acetonitrile, 0.1% formic acid
Procedure, shortened: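 The system's dead and dwell volumes were 40 μL and 900 μL, with a Zorbax Extend-C18 column (2.1 × 50 mm, 1.8 μm) run at 100 μL/min in water and acetonitrile containing 0.1% formic acid each. Pure standards were analyzed in mixtures of ~100 molecules by HPLC–quadrupole time-of-flight mass spectrometry in positive and negative ionization mode. Retention time was assigned from computationally picked, manually inspected adduct peaks.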

Compound	RP-LC retention time [s]
Cc1ccc(C)c(N2CCN(c3ccc4cc(S(=O)(=O)N5CCCCC5C)ccc4n3)CC2)c1 (centres undefined)	1340
CCOc1ccc(NC(=O)N2CCN(c3ccc(=O)n(-c4ccc(F)cc4)n3)CC2)cc1	804
COc1ccccc1CNC(=O)c1nnc(-c2ccc(S(=O)(=O)N3CCOCC3)cc2)o1	858
CCCN1CCN(C(=O)C(C)C2CCN(C(=O)c3[nH]c(C)c(C(=O)OCC)c3C)CC2)CC1 (centres undefined)	620
CCc1ccc(OCC(=O)Nc2cnn(CC)c(=O)c2N2CCCCC2)cc1	1240
O=C(NCCCn1nc(-c2ccncc2)ccc1=O)C1c2ccccc2Oc2ccccc21	629
Cc1cc(=O)c2c(=O)[nH][nH]c2[nH]1	567
COc1ccc2nc(C)cc(SCC(=O)Nc3csc4nc(=O)c(C)nn34)c2c1	590
O=C(Cc1csc(Nc2ncccn2)n1)Nc1ccc2c(c1)Cc1ccccc1-2	845
COc1cccc(-c2noc(Cn3nc4ccc(-c5ccc(C)c(C)c5)nn4c3=O)n2)c1OC	969
CCn1nc(N2CCCC(NS(=O)(=O)c3ccc(F)c(Cl)c3)C2)ccc1=O (centres undefined)	817
O=c1n(CC2CC2)nc2n1CCC(NS(=O)(=O)Cc1ccccc1F)CC2 (centres undefined)	706
COCc1c(C(=O)O)nnn1-c1cccc(Br)c1	729
COc1cc(-c2nc3ncccn3c2NC2CCCCCC2)cc(OC)c1OC	790
Cc1cnc(C)n1C1CCN(S(=O)(=O)c2ccccc2)CC1	634
CS(=O)(=O)c1ccc(CC(=O)Nc2nnc(C3CCCO3)o2)cc1 (centres undefined)	578
Cc1cccc(S(=O)(=O)N2CCC(c3nc(C(=O)N4CCCC4)c(C)o3)CC2)c1	902
Cc1ccccc1-c1nc(N)n(C(=O)C2CC2)n1	876
Cc1nn(C(C)C(=O)NCCN2CCCCC2C)c(=O)c2c1sc1ccccc12 (centres undefined)	680
COc1nn(C)cc1C(=O)N1CCc2nc(NC(=O)c3ccco3)sc2C1	599
CSc1ccc(NC(=O)N2C[C@@H]3C[C@H]2C[C@@H]3NS(=O)(=O)c2ccccc2)cc1	856

Compound	RP-LC retention time [s]
CCC1Oc2ccc(S(=O)(=O)N3CCC(C(=O)N4CCCC4)CC3)cc2NC1=O (centres undefined)	730
CCCS(=O)(=O)N1C[C@@H](COC)[C@H](c2ccccn2)C1	619
O=c1c2c(CO)c(-c3ccccc3)nn2ccn1Cc1ccccc1Cl	961
CNC(=O)c1cc(C)nc2c(C)cc(C)cc12	568
O=C(Cn1cnc2c(nc3n2CCCCC3)c1=O)Nc1ccc2c(c1)OCCO2	659
CN(CCNC(=O)CN(c1ccccc1)S(=O)(=O)N(C)C)Cc1ccccc1	656
Cc1cc(C(=O)NCC(C)C)n[nH]1	629
Cc1cc(=O)n(CC(=O)Nc2cc(F)ccc2C)c(N2CCCCC2)n1	699
CCOc1ccc(C(=O)N2CCCC2c2nc(-c3ccc(OC)cc3)no2)cc1 (centres undefined)	886
Cc1cc(C)c2c(N3CCSCC3)nc(C(=O)NCC3CC3)nc2n1	653
Cc1cc(NS(=O)(=O)c2cc3n(c2)CCN(C)C3=O)ccc1F	698
CCN1CCn2cc(S(=O)(=O)Nc3ccc(F)c(C)c3)cc2C1=O	742
O=C(CC1CCN(C(=O)c2ccc3oc(C4CC4)nc3c2)CC1)N1CCOCC1	619
O=C1NCCOc2ccc(NS(=O)(=O)c3ccc(F)c(Cl)c3)cc21	685
O=C(NCc1cccc(Cl)c1)C1CCc2nc(N3CCOCC3)ncc2C1 (centres undefined)	726
COc1ccc(-c2cc(C(=O)N3CCN(S(=O)(=O)c4ccc(OC)c(OC)c4)CC3)[nH]n2)cc1	795
COc1ccc(C(=O)NC2CCN(c3cc(-c4cccs4)[nH]n3)C2)c(OC)c1 (centres undefined)	724
COCCCNC(=O)C1(c2ccc(NC(=O)c3ccc(Br)cc3)cc2)CCC1	820
Cc1ccsc1-c1nnc(CC(=O)N2CCN(Cc3ccc4c(c3)OCO4)CC2)o1	640
COc1ccc(-c2nn3c(COc4ccc(Br)cc4)nnc3s2)cc1OC	980
O=C(c1ccc2ccccc2n1)N1CCN(c2cc(-c3cccs3)[nH]n2)CC1	752

Compound	RP-LC retention time [s]
O=C(C1CCN(S(=O)(=O)c2cc(-c3noc(C4CCC4)n3)cs2)CC1)N1CCCC1	911
Cn1cc(-c2cc3n(n2)CCCN3C(=O)CCC(=O)N2CCCCC2)c2ccccc21	753
CCOc1ccc(CCNC(=O)c2cc3sc(Cl)cc3n2C)cc1OCC	1110
O=S(=O)(c1ccc(F)cc1)N1CCC(c2noc(C3CC3)n2)C1 (centres undefined)	885
c1ccc(C2(c3ccccc3)CC2C2=NCCN2)cc1 (centres undefined)	732
Nc1cc(C2CCN(S(=O)(=O)c3cccc(C(F)(F)F)c3)CC2)no1	794
CCOC(=O)C(CC)n1nc2ccc(S(=O)(=O)N3CCC(C)CC3)cn2c1=O (centres undefined)	990
Cc1ccc(C(=O)Nc2nccnc2C(=O)NC2CCCC2)cc1	1040
COc1ccc(S(=O)(=O)N2CCC(c3noc(C4CC4)n3)C2)cc1 (centres undefined)	847
CCCOc1ccc(CN2CCC3(CCC3O)CC2)cc1OC (centres undefined)	629
COC(=O)c1c(C)c(C(=O)C(C)N(CC(C)C)C(=O)c2ccc(F)cc2)c(C)n1C (centres undefined)	1020
Cc1ccc(Nc2nc3ccncc3n(C(C)C)c2=O)cc1F	722
Cc1cncn(CC(=O)N2CCN(S(C)(=O)=O)CC2)c1=O	528
Cc1ccc(C)c(NC(=O)c2c(C)sc3ncnc(N4CCCC(C)C4)c23)c1 (centres undefined)	1240
O=C(NCc1cccnc1)C1CCN(c2cc(N3CCSCC3)ncn2)CC1	553
O=C(NCCc1ccccc1)N(C1CCOCC1)C1CCN(Cc2cccc(F)c2)CC1	604
CN(C)[C@@H]1CN(C(=O)Cc2cccc3ccccc23)C[C@H]1CO	546
CC(C)n1cnc2cc(CNC(=O)C3CCCC3)ccc21	595
CCN1CCC(CCNC(=O)c2cc3c(s2)N(CC)CCCC3)CC1	685
O=C(Cn1nc2c(Oc3ccc(F)cc3)nccn2c1=O)NC1CCCCC1	804

Continued, values first:

RP-LC retention time [s]	Compound
802	COc1ccc(NC(=O)Cn2c(=O)n(-c3ccc(C)cc3)c3ncccc32)cc1OC
714	CCN1c2ccccc2C(=O)NC12CCN(C(=O)c1cc(OC)c(OC)c(OC)c1)CC2
788	O=C(CC1COc2ccccc2NC1=O)Nc1ccc(F)c(Cl)c1 (centres undefined)
1240	Cc1ccc(-c2coc(-c3ccc(NC(=O)CC(C)C)cc3)n2)c(C)c1
598	COc1ccc(CCS(=O)(=O)NCC2CCN(Cc3ccccc3SC)CC2)cc1
785	COc1ccc(OC)c(NC(=O)c2c(N3CCCC3=O)c3cc(F)ccc3n2C)c1
812	CCN1C(=O)c2cc(C(=O)NCc3cccc(C)c3)nn2CC1(C)C(=O)NC1CCCC1 (centres undefined)
854	COc1ccc(OC)c(S(=O)(=O)N2CCCC(C(=O)NCCc3ccccc3)C2)c1 (centres undefined)
1220	Cc1ccc(-c2noc(Cc3nc(-c4ccc5c(c4)OCO5)cs3)n2)cc1
894	Cc1ccc(C2=NC3(CCN(C(=O)CSc4ccccc4)CC3)ON2)cc1
1000	CCCN(C(=O)C1CCCN(c2ncnc3c2nc2n3CCCCC2)C1)c1ccccc1C (centres undefined)
544	Cc1nc2ccccn2c(=O)c1Cc1nnc(SCC(=O)NCc2nc3ccccc3[nH]2)n1C
705	O=C(NCc1cccc(F)c1)C1CC(=O)N(c2n[nH]c3cccc(F)c23)C1 (centres undefined)
858	Cc1noc(C)c1S(=O)(=O)N1CCC(C(C)C(=O)NCCc2c[nH]c3ccccc23)CC1 (centres undefined)
1080	O=C1CC(c2nc(-c3ccc(Br)cc3)no2)CN1c1ccccc1 (centres undefined)
892	CCNC(=O)N(CC(=O)N1CCc2sccc2C1COc1ccccc1)C(C)CC (centres undefined)
932	CC(C)n1c(=O)sc2cc(S(=O)(=O)N3CCC(C(=O)NCc4ccccc4)CC3)ccc21
991	C=CCn1c(C)c(CC(=O)Nc2ccc(C)cc2)c(=O)n2nc(-c3ccc(C)cc3)nc12
946	CC(C)c1ccc(-c2cc3c4nn(CC(=O)NCc5ccco5)c(=O)n4ccn3n2)cc1
868	CC(C)Cn1c(=O)c(C(=O)NCc2ccccc2F)nc2cccnc21
596	Cc1cccc2c(C(N)=O)cc(=O)[nH]c12
1060	Cc1ccc(-n2nc(N3CCCC(C(=O)NCCC4=CCCCC4)C3)ccc2=O)cc1Cl (centres undefined)
662	Cc1ccc2c(=O)c3c([nH]c2c1C)CCN(CC(=O)Nc1ccc(Cl)c(F)c1)C3
743	COC(=O)c1c2c(nc3ccccc13)CCN(C(=O)Nc1ccccc1)C2
982	CCOc1ccccc1-c1noc(Cn2c(=O)n(-c3ccccc3F)c(=O)c3sccc32)n1
1160	Cc1cc(C)c2c(=O)n(Cc3nc(-c4ccccc4)oc3C)c(=O)n(C)c2n1
792	CCCCCN1C(=O)C2(NCCc3c2[nH]c2ccc(C)cc32)c2ccccc21 (centres undefined)
